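48-hour exposure; five concentrations; linearly interpolated endpoints. TGI is the concentration that stops growth completely.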
How the values were obtained:
Experiment in all cases: NCI-60 cell line screen, 48 h
CAKI-1 renal = test system: CAKI-1 renal
HOP-92 NSCLC = test system: HOP-92 NSCLC
RXF 393 renal = test system: RXF 393 renal
MOLT-4 leukemia = test system: MOLT-4 leukemia
MALME-3M melanoma = test system: MALME-3M melanoma
SK-MEL-2 melanoma = test system: SK-MEL-2 melanoma
SNB-19 CNS = test system: SNB-19 CNS
SR leukemia = test system: SR leukemia
OVCAR-5 ovarian = test system: OVCAR-5 ovarian
NCI-H522 lung = test system: NCI-H522 lung
SF-539 CNS = test system: SF-539 CNS
OVCAR-4 ovarian = test system: OVCAR-4 ovarian
RPMI-8226 leukemia = test system: RPMI-8226 leukemia
PC-3 prostate = test system: PC-3 prostate
UACC-257 melanoma = test system: UACC-257 melanoma
SF-268 CNS = test system: SF-268 CNS
IGROV1 ovarian = test system: IGROV1 ovarian
HCT-15 colon = test system: HCT-15 colon
DU-145 prostate = test system: DU-145 prostate
T-47D breast = test system: T-47D breast

SMILES	TGI (CAKI-1 renal) [µM]	TGI (HOP-92 NSCLC) [µM]	TGI (RXF 393 renal) [µM]	TGI (MOLT-4 leukemia) [µM]	TGI (MALME-3M melanoma) [µM]	TGI (SK-MEL-2 melanoma) [µM]	TGI (SNB-19 CNS) [µM]	TGI (SR leukemia) [µM]	TGI (OVCAR-5 ovarian) [µM]	TGI (NCI-H522 lung) [µM]	TGI (SF-539 CNS) [µM]	TGI (OVCAR-4 ovarian) [µM]	TGI (RPMI-8226 leukemia) [µM]	TGI (PC-3 prostate) [µM]	TGI (UACC-257 melanoma) [µM]	TGI (SF-268 CNS) [µM]	TGI (IGROV1 ovarian) [µM]	TGI (HCT-15 colon) [µM]	TGI (DU-145 prostate) [µM]	TGI (T-47D breast) [µM]
COc1cc(O)c2c(=O)cc(-c3ccc(O)cc3O)oc2c1CC=C(C)C	32.5	35.7	19.6	83.2	33	39.1	44.5	26.3	> 100	33.6	34.7	28.5	> 100	27.1	86.6	63.4	39.6	25.5	> 100	
O=C(Nc1ccc(Cl)cc1)NS(=O)(=O)c1coc2cc(F)ccc2c1=O	> 100		> 100	> 100	> 100	> 100	> 100	> 100	> 100	> 100	> 100	> 100		> 100	> 100	> 100	> 100	> 100		> 100
C=C(C)C1=CCC[C@]2(C1)N=C(OC)[C@@H](C(C)C)N=C2OC	> 100	> 100		> 100	> 100	> 100	> 100		> 100	> 100	> 100	> 100	47.9	> 100	> 100	> 100	> 100	> 100	> 100	> 100
O=[N+]([O-])/C(C(Cl)=C(Cl)Cl)=C(\N1CCOCC1)n1nnc2ccccc21	31.6	37.6		72.3	35.1	47.7	33.7		44	34.1	32.8	76.1	> 100	30.8	50.7	40		29.6	37.5	56.8
Cc1cc(=O)[nH]c(-n2[nH]c(C)c(CCO)c2=O)n1	> 100		> 100		> 100	> 100	> 100		> 100	> 100	> 100	> 100	> 100	> 100	> 100	> 100	> 100	> 100	> 100	> 100
N#Cc1c(N)nc(-c2ccc(Cl)cc2)c2c1-c1ccccc1S(=O)(=O)CC2	> 100	> 100			> 100	> 100	93.9	> 100	> 100	> 100		> 100	> 100	> 100	> 100	> 100	> 100	> 100	> 100	> 100

Reference: PubChem BioAssay (NCI)
